Data from patent US7629453B2, “NF-κB activating gene” (Asahi Kasei Pharma Corporation, priority 2000, dated 2009).
Strand notation (5' to 3'): a small letter for the sugar, then the base; units joined by * are phosphorothioate-linked, units joined directly phosphodiester-linked; [ ] holds rarer units or linkages, { } end groups; capitals alone tell only the bases. Where a SMILES comes first, the peptide text is derived from it. The star is where a group is joined. Cbz = O=C(OCc1ccccc1)*; d = 2'-deoxy (DNA); r = 2'-OH (RNA)

Tests used:
Assay type in all cases: cell-based
gene of SEQ ID NO:88 [1] = experiment: Expression inhibition of the gene of SEQ ID NO:88 by double stranded nucleic acid (NF-κB luciferase reporter, EBNA cells); conditions: for relative luciferase activity (%): 10 pmol per well, 24 hours, firefly standardized with Renilla, control without double stranded nucleic acid = 100%; for luciferase activity / expression of the protein of SEQ ID NO: 87 (in words): EBNA cells, Lipofectamine 2000, versus cells without double stranded nucleic acid
Protocol: That is, using Lipofectamine 2000 (Invitrogen), an expression vector having the polynucleotide of SEQ ID NO:88, pNFkB-Luc, phRL-TK vector and double stranded nucleic acid (A) were co-transfected into EBNA cells, and after culturing, luciferase activity was measured.
EBNA cells (Invitrogen) were inoculated on DMEM medium containing 5% FBS in a 96-well cell culture plate to a cell density of 1.2×10^4 cells/100 μl/well, and cultured for 24 hours at 37° C. in the presence of 5% CO2. Next, using Lipofectamine 2000 (Invitrogen), 50 ng of an expression vector having the polynucleotide of SEQ ID NO:88 and 50 ng of pNFkB-Luc (STRATAGENE) and 10 ng of phRL-TK vector (Promega Corporation) used as an internal standard, were co-transfected with double stranded nucleic acid 88-1 (10 pmol) prepared in (1) above into 1 well. After culturing for 24 hours at 37° C., firefly luciferase activity and Renilla reniformis luciferase activity were measured using a Dual-Luciferase Reporter Assay System (Promega Corporation). Further, each of 88-2 (10 pmol), 88-3 (10 pmol), 88-4 (10 pmol), 88-5 (10 pmol) or 88-6 (10 pmol) was co-transfected into 1 well in place of 88-1 (10 pmol), and luciferase activity was measured in the same manner. In Table 1, values for activity represent relative values when firefly luciferase activity in the control experiment (cells into which double stranded nucleic acid has not been introduced) is established as 100%. (It should be noted that values for firefly luciferase activity were standardized with values for Renilla reniformis luciferase activity used as an internal standard, before using these values in calculations.)

gene of SEQ ID NO:88 [2] = experiment: as above; conditions: Lipofectamine 2000, versus cells without double stranded nucleic acid
NF-κB activation = experiment: NF-κB reporter activity inhibition by proteasome inhibitor in 293-EBNA cells cotransfected with NF-κB activating protein expression vector and pNFκB-Luc; conditions: MG-132 0.1, 0.5, 1.0 and 10 μM added 1 hour after transfection; 293-EBNA cells with vector for protein of SEQ ID NO: 5, 9, 17 ... 178; 24 hours
Protocol: 293-EBNA cells were seeded on 5% FBS containing DMEM medium in a 96-well cell culture plate to a final cell density of 1×10^4 cells/100 μl/well, and cultured for 24 hours at 37° C. in the presence of 5% CO2. Then, 50 ng of the expression vector comprising the gene encoding NF-κB activating protein of SEQ ID NO: 5, 9, 17, 21, 35, 37, 41, 53, 57, 63, 67, 71, 75, 81, 87, 91, 93, 97, 121, 123, 129, 154, 158, 162, 168, 170, 172, 176 or 178, and 50 ng of the reporter plasmid pNF κB-Luc were cotransfected into the cells in a well using FuGENE 6. After 1 hour, the proteasome inhibitor MG-132 (purchased form CALBIOCHEM) (Uehara T. et al., J. Biol. Chem. 274, p. 15875-15882 (1999); Wang X. C. et al., Invest. Ophathalmol. Vis. Sci. 40, p. 477-486) was added to the culture to final concentrations of 0.1 μM, 0.5 μM, 1.0 μM and 10 μM, respectively. After 24 hours of culture at 37° C., the reporter activity was measured using PIKKA GENE LT2.0.

Row | Molecule | relative luciferase activity (%) (gene of SEQ ID NO:88 [1]) | luciferase activity / expression of the protein of SEQ ID NO: 87 (in words) (gene of SEQ ID NO:88 [1]) | also measured
1 | 88-3: double stranded nucleic acid annealed from oligonucleotides A3 (SEQ ID NO: 189) and B3 (SEQ ID NO: 190) (chain 1 rGrCrUrGrArArGrArArGrArGrGrUrGrUrUrCrCdTdT; chain 2 rGrGrArArCrArCrCrUrCrUrUrCrUrUrCrArGrCdTdT; siRNA) | 9% | exhibited inhibition of firefly luciferase activity | luciferase activity / expression of the protein of SEQ ID NO: 87 (in words) (gene of SEQ ID NO:88 [2]; listed as (C)): similarly inhibited
2 | 88-6: double stranded nucleic acid annealed from oligonucleotides A6 (SEQ ID NO: 195) and B6 (SEQ ID NO: 196) (chain 1 GAUGACUUUGGUAUCAAACTT; chain 2 GUUUGAUACCAAAGUCAUCTT; siRNA; sugars from the 5' end r19 d2, backbone not given here) | 7% | exhibited inhibition of firefly luciferase activity | luciferase activity / expression of the protein of SEQ ID NO: 87 (in words) (gene of SEQ ID NO:88 [2]; listed as (F)): similarly inhibited
3 | 88-1: double stranded nucleic acid annealed from oligonucleotides A1 (SEQ ID NO: 185) and B1 (SEQ ID NO: 186), targeting SEQ ID NO: 88 (chain 1 rGrUrCrCrArGrGrArUrArUrCrArUrGrArGrUrCdTdT; chain 2 rGrArCrUrCrArUrGrArUrArUrCrCrUrGrGrArCdTdT; siRNA) | 18% | exhibited inhibition of firefly luciferase activity | luciferase activity / expression of the protein of SEQ ID NO: 87 (in words) (gene of SEQ ID NO:88 [2]): markedly lower
4 | 88-4: double stranded nucleic acid annealed from oligonucleotides A4 (SEQ ID NO: 191) and B4 (SEQ ID NO: 192) (chain 1 rGrArUrGrArCrArCrArGrArUrGrArArGrCrCrCdTdT; chain 2 rGrGrGrCrUrUrCrArUrCrUrGrUrGrUrCrArUrCdTdT; siRNA) | 8% | exhibited inhibition of firefly luciferase activity | luciferase activity / expression of the protein of SEQ ID NO: 87 (in words) (gene of SEQ ID NO:88 [2]; listed as (D)): similarly inhibited
5 | CC(C)C[C@@H](C=O)NC(=O)[C@H](CC(C)C)NC(=O)[C@H](CC(C)C)NC(=O)OCc1ccccc1 [MG132, MG-132] (Cbz-Leu-Leu-Leu-aldehyde) | – | – | expression of the reporter gene (NF-κB reporter activity) (NF-κB activation): inhibited the expression of the reporter gene
6 | 88-2: double stranded nucleic acid annealed from oligonucleotides A2 (SEQ ID NO: 187) and B2 (SEQ ID NO: 188) (chain 1 rGrArArGrUrCrUrGrArArGrArUrCrUrArUrCrCdTdT; chain 2 rGrGrArUrArGrArUrCrUrUrCrArGrArCrUrUrCdTdT; siRNA) | 12% | exhibited inhibition of firefly luciferase activity | luciferase activity / expression of the protein of SEQ ID NO: 87 (in words) (gene of SEQ ID NO:88 [2]; listed as (B)): similarly inhibited
7 | 88-5: double stranded nucleic acid annealed from oligonucleotides A5 (SEQ ID NO: 193) and B5 (SEQ ID NO: 194) (chain 1 GCCCUCAGAGUCCAGAAUCTT; chain 2 GAUUCUGGACUCUGAGGGCTT; siRNA; sugars from the 5' end r19 d2, backbone not given here) | 5% | exhibited inhibition of firefly luciferase activity | luciferase activity / expression of the protein of SEQ ID NO: 87 (in words) (gene of SEQ ID NO:88 [2]): similarly inhibited
